Values joined by “and” are separate entries in the source; they are usually repeats but may differ in a detail not shown here. Equal values may be shown once. Read-outs that look alike come from different tables or passages of the source.
Legend:
Corn [1] = assay: Greenhouse test, combination of Procedures II and III: insecticide in-furrow or in cover layer, herbicide and antidote incorporated in cover layer (Examples 1-3, 6; Tables 1-3, 6); format: in vivo; details: 3 weeks
Giant foxtail (GIFT) = assay: whole plant or invertebrate; format: in vivo; details: for % Inhibition GIFT: in vivo
Corn [2] = details: for antidote activity: COUNTER with BEACON, PURSUIT (POE) or XRD-498 (PPI), Tables 29-37
Corn [3] = assay: Greenhouse test Procedure VII: biocide and antidote in furrow, herbicide POE (Examples 39-42, 48-50, 56-58; Tables 38-41, 47-49, 55-57); format: in vivo; details: for % Inhibition Corn: C (COUNTER) + antidote in furrow
Description: This procedure describes interaction among herbicide, biocide and antidote when the biocide and the antidote is applied to a soil furrow containing crop seed before emergence of the crop and the herbicide is applied after emergence of the crop and weeds. The soil and planting depth was described in Procedure IV. The containers for comparison, the biocide and antidote applications to soil furrows were described in Procedure VI. In this procedure, the seed beds of the first, second, third and fourth containers are covered by soil layers not treated with herbicide. The containers were then placed on a bench in a greenhouse and subirrigated as required for the duration of the test. The herbicide, dispersed or dissolved in water containing 0.25% v/v nonionic surfactant (X-77) was applied by a track sprayer (187 L/ha) to the emerged plants of the second, third and fourth containers about five days after planting. All treatments were run in duplicate. Plant response was observed according to Procedure IV. Variations in this procedure will be noted in the examples.
In this example, tests were conducted according to Procedure VII for the POE application of the herbicides following in-furrow application of COUNTER® 15G insecticide (BIOCIDE No. 1) and the antidote on the pre-planted test seeds. In this test, the herbicides were Nos. 1 (MON-12000), 10 (ALLY®) and #4 (HARMONY®) and the Antidote Nos. 1, 7, 12 and 33.
These in-furrow treatments comprised a 50-50 mix of blended granules of COUNTER with and without 5G granular antidotes at 7.4 + 7.4 mg/cm or 1.1 + 0.37 mg active ingredient (a.i.)/cm. The in-furrow initiation of the test was followed five (5) days later with POE application of the herbicides; observations were made eight (8) days later.
In another test, conducted simultaneously with that in Example 39, Herbicide Nos. 5 (chlorimuron ethyl, active ingredient in CLASSIC® herbicide), 7 (nicosulfuron, active ingredient in ACCENT® herbicide) and 15 (tribenuron methyl, active ingredient in EXPRESS® herbicide) were substituted as test herbicides.
In this example, using the same procedure as above, the following imidazolinone herbicides were used with the same insecticide/biocide and antidotes as above: Herb. No. 16 (imazaquin, a.i. in SCEPTER® herbicide; No. 19 (Code No. AC 222293, a.i. in ASSERT® herbicide); No. 6 (imazethapyr, a.i. in PURSUIT® herbicide and No. 18 (imazapyr, a.i. in ARSENAL® herbicide). Test results are shown in Table 40. Table 40
This example describes the testing of the above antidotes used in Examples 39-41 to safen negative synergy interactions between representative species of the class of herbicidal compounds identified as azolopyrimidine sulfonamides and COUNTER 15G. The same procedure used in the above examples was conducted in this test. In this test, the herbicides were formulated in 17% acetone and 83% water with 0.25% v/v X-77 surfactant.
In these tests (according to Procedure VII) the safeners in solution with acetone were applied in furrow to the soil, followed by COUNTER 15G granules at 227 g/305 m (8 oz./1000'). Applications were made in alternate rows in two separate 13.7 cm x 27.7 cm pans containing Dupo silt loam. Pans were seeded 1.3 cm deep, placed on benches in a greenhouse and subirrigated. BEACON was formulated in water with 0.25% v/v X-77 surfactant and applied by track sprayer at a rate of 187 L/Ha (20 gal/A). Weed species in this test were giant foxtail, shattercane and velvetleaf. The herbicide was applied five (5) days after PPI initiation and observation of test result (shown in Table 47) made eight (8) days later.
In Table 47 COUNTER 15G is abbreviated as "C" and the antidotes as "A" in the column headings which indicate the "C + A" ratios used in the tests. Control and COUNTER treatments are average of four (4) replications and COUNTER + Antidote treatments, average of 2 reps. […]

Corn [4] = system: Corn
Shattercane (SHCA) = format: in vivo
Velvetleaf (VELE) = format: in vivo, Abutilon theophrasti
[5] = Antidote 4.48 + Biocide No. 1 8.96 Kg/Ha PPI, Herb. No. 8 0.07, 5 DAP, before herbicide application
[6] = Antidote 4.48 + Biocide No. 1 8.96 Kg/Ha PPI, Herb. No. 8 0.07 POE, 13 DAP
[7] = Antidote 4.48 + Biocide No. 1 8.96 Kg/Ha PPI, Herbicide No. 7 0.28 POE, 13 days after planting
[8] = Herb. […], 5 DAP, before herbicide application
[9] = Table 14: Herbicide No. 7 (ACCENT) 0.84 Kg/Ha POE + Biocide No. 2 8.96 Kg/Ha PPI + antidote 4.48 Kg/Ha PPI, 13 days after planting, 8 days after herbicide
[10] = […], 13 days after planting, 8 days after herbicide
[11] = […], observed 10 days after herbicide application
[12] = C:A Ratio 20, ACCENT 0.56 Kg/Ha POE
[13] = C:A Ratio 20, BEACON 0.28 Kg/Ha POE
[14] = C:A Ratio 40, ACCENT 0.56 Kg/Ha POE
[15] = C:A Ratio 40, BEACON 0.28 Kg/Ha POE
[16] = C:A Ratio 80, ACCENT 0.56 Kg/Ha POE
[17] = C:A Ratio 80, BEACON 0.28 Kg/Ha POE
[18] = C:A Ratio 160, ACCENT 0.56 Kg/Ha POE
[19] = C:A Ratio 160, BEACON 0.28 Kg/Ha POE

## Cc1c(F)c(F)c(COC(=O)[C@@H]2[C@H](/C=C(\Cl)C(F)(F)F)C2(C)C)c(F)c1F (racemic) [Biocide No. 3, 2,3,5,6-tetrafluoro-4-methylbenzyl-(Z(-(1 RS, 3RS)-3-(2-Chloro-3,3,3-trifluoroprop-1-ethyl)-2,2-dimethyl-cyclopropane carboxylate, reference compound]
Corn [1]; Ex. 3: Insecticide 3 (227g) alone
  % Injury Corn: 3%

## O=C1OC(=O)c2cccc3cccc1c23 [Antidote No. 5, 1H,3H-Naphtho<1,8-cd>pyran-1,3-dione]
Giant foxtail (GIFT); XRD-498 + OP insecticides, Examples 24-27
  giant foxtail control: reduction in giant foxtail control

## N#CCON=C(C#N)c1ccccc1 [Antidote No. 9, Benzeneacetonitrile, alpha-<(cyano-methoxy)imino>-]
Corn [2]
  antidote activity: active safeners

## O=C(C(Cl)Cl)N1CCOC12CCCCC2 [Antidote No. 16, 1-Oxa-4-azaspiro<4.5>decane, 4-(dichloroacetyl)-]
Corn [3]; COUNTER 15G + BEACON/co-herbicide combinations, Example 56
  corn injury: reduced corn injury
Corn [3]; COUNTER 15G/BEACON, Example 48
  safening, comparison: not as active as the other safeners
Corn [3]; COUNTER/BEACON (and ACCENT), Examples 49, 50
  protecting corn, comparison: weak in safening effect

## CC1COc2ccccc2N1C(=O)C(Cl)Cl (stereo not shown) [Antidote No. 28, 4-(Dichloroacetyl)-3,4-dihydro-3-methyl-2H-1,4-benzoxazine]
Corn [2]; Example 29, COUNTER with BEACON and ACCENT
  safening, comparison: comparable to MON-13900 (No. 1), but less effective than MON-7400
Corn [4]; DIAZINON + Herbicides 1, 21, 18, Example 53
  safening: Effective safening
Corn [4]; malathion + Herbicides 1, 21, 18, Example 54
  safening: moderate to high degrees of safening

## CCSC(=O)COC(c1ccccc1)c1ccccc1 [Antidote No. 51, Ethanethioic acid, 2-(diphenyl-methoxy)-, S-ethyl ester]
Corn [2]
  antidote activity: most active

## O=C(O)c1sc(Cl)nc1C(F)(F)F [Antidote No. 65, 5-Thiazolecarboxylic acid, 2-chloro-4-(trifluoromethyl)-]
Corn [2]
  antidote activity: slightly more active than other thiazoles tested

## CNC(=O)Oc1cccc2c1OC(C)(C)C2 [Biocide No. 4, 2,3-Dihydro-2,2-dimethyl-7-benzofuranyl methylcarbamate, reference compound]
Corn [1]; Ex. 3: Insecticide 4 (227 g) alone
  % Injury Corn: 5%

## CCOP(=S)(OCC)SCSCC [Biocide No. 10, O,O-Diethyl S-[(ethylthio)methyl]phosphorodithioate, reference compound]
Shattercane (SHCA); in vivo
  % Inhibition SHCA: 25%
Giant foxtail (GIFT)
  % Inhibition GIFT: 30% and 20%

## C=CCN(CC=C)C(=O)C(Cl)Cl [compound 2]
Corn [2]; [5]
  % Inhibition 5 DAP Corn: 10%
Corn [2]; [6]
  % Inhibition 13 DAP Corn: 50%
Corn [2]; [7]
  % Inhibition Corn: 30%
Corn [2]; [8]
  % Inhibition 5 DAP Corn: 0%
Corn [2]; [9]
  % Inhibition Corn: 20%
Corn [2]; [10]
  % Inhibition Corn: 15%
Corn [2]; [11]
  % Inhibition Corn: 60%
Corn [2]; in vivo
  % Inhibition 5 DAP Corn: 20%
  % Inhibition 13 DAP Corn: 45%
Shattercane (SHCA); [5]
  % Inhibition 5 DAP SHCA: 0%
Shattercane (SHCA); [6]
  % Inhibition 13 DAP SHCA: 85%
Shattercane (SHCA); [7]
  % Inhibition SHCA: 75%
Shattercane (SHCA); [8]
  % Inhibition 5 DAP SHCA: 0%
Shattercane (SHCA); [9]
  % Inhibition SHCA: 75%
Shattercane (SHCA); [10]
  % Inhibition SHCA: 90%
Shattercane (SHCA); [11]
  % Inhibition SHCA: 65%
Shattercane (SHCA); in vivo
  % Inhibition 5 DAP SHCA: 20%
  % Inhibition 13 DAP SHCA: 85%
Velvetleaf (VELE); [5]
  % Inhibition 5 DAP VELE: 0%
Velvetleaf (VELE); [6]
  % Inhibition 13 DAP VELE: 95%
Velvetleaf (VELE); [7]
  % Inhibition VELE: 65%
Velvetleaf (VELE); [8]
  % Inhibition 5 DAP VELE: 0%
Velvetleaf (VELE); [9]
  % Inhibition VELE: 70%
Velvetleaf (VELE); [10]
  % Inhibition VELE: 60%
Velvetleaf (VELE); [11]
  % Inhibition VELE: 80%
Velvetleaf (VELE); in vivo
  % Inhibition 5 DAP VELE: 0%
  % Inhibition 13 DAP VELE: 85%
Giant foxtail (GIFT)
  % Inhibition GIFT: 50% and 55% and 80% and 60% and 70% and 90%

## O=C(OCc1ccccc1)c1sc(Cl)nc1C(F)(F)F [compound 7]
Velvetleaf (VELE); [10]
  % Inhibition VELE: 65%
Velvetleaf (VELE); […], observed 7 days after POE (Table 35)
  % Inhibition VELE: 75%

## C=CCC(C)(C#N)Sc1ccc(C)cc1 (stereo not shown) [compound 32]
Corn [2]; [5]
  % Inhibition 5 DAP Corn: 0%
Corn [2]; [6]
  % Inhibition 13 DAP Corn: 75%
Corn [2]; [7]
  % Inhibition Corn: 55%
Corn [2]; [8]
  % Inhibition 5 DAP Corn: 0%
Corn [2]; [9]
  % Inhibition Corn: 35%
Corn [2]; [10]
  % Inhibition Corn: 25%
Corn [2]; [11]
  % Inhibition Corn: 70%
Corn [2]; in vivo
  % Inhibition 5 DAP Corn: 20%
  % Inhibition 13 DAP Corn: 70%
  % Inhibition Corn: 65% and 55% and 45%
Corn [2]; primisulfuron POE + biocides PPI, Tables 8-10
  activity in reducing corn injury: either inactive or weakly active
Shattercane (SHCA); [5]
  % Inhibition 5 DAP SHCA: 30%
Shattercane (SHCA); [6]
  % Inhibition 13 DAP SHCA: 85%
Shattercane (SHCA); [7]
  % Inhibition SHCA: 70%
Shattercane (SHCA); [9]
  % Inhibition SHCA: 70%
Shattercane (SHCA); [10]
  % Inhibition SHCA: 95%
Shattercane (SHCA); [11]
  % Inhibition SHCA: 50%
Shattercane (SHCA); in vivo
  % Inhibition 5 DAP SHCA: 30%
  % Inhibition 13 DAP SHCA: 80%
Velvetleaf (VELE); [5]
  % Inhibition 5 DAP VELE: 0%
Velvetleaf (VELE); [6]
  % Inhibition 13 DAP VELE: 90%
Velvetleaf (VELE); [7]
  % Inhibition VELE: 65%
Velvetleaf (VELE); [8]
  % Inhibition 5 DAP VELE: 0%
Velvetleaf (VELE); [9]
  % Inhibition VELE: 60%
Velvetleaf (VELE); [10]
  % Inhibition VELE: 70%
Velvetleaf (VELE); [11]
  % Inhibition VELE: 80%
Velvetleaf (VELE); in vivo
  % Inhibition 5 DAP VELE: 0%
  % Inhibition 13 DAP VELE: 85%

## O=C(O)COC(c1ccccc1)c1ccccc1 [compound 78]
Corn [3]; [12]
  % Inhibition Corn: 25%
Corn [3]; [13]
  % Inhibition Corn: 5%
Corn [3]; [14]
  % Inhibition Corn: 20%
Corn [3]; [15]
  % Inhibition Corn: 5%
Corn [3]; [16]
  % Inhibition Corn: 40%
Corn [3]; [17]
  % Inhibition Corn: 20%
Corn [3]; [18]
  % Inhibition Corn: 60%
Corn [3]; [19]
  % Inhibition Corn: 20%

## O=C(O)COC(c1ccccc1)c1ccccc1 [compound 79]
Corn [3]; [12]
  % Inhibition Corn: 15%
Corn [3]; [13]
  % Inhibition Corn: 0%
Corn [3]; [14]
  % Inhibition Corn: 20%
Corn [3]; [15]
  % Inhibition Corn: 5%
Corn [3]; [16]
  % Inhibition Corn: 30%
Corn [3]; [17]
  % Inhibition Corn: 15%
Corn [3]; [18]
  % Inhibition Corn: 45%
Corn [3]; [19]
  % Inhibition Corn: 20%

Source: patent EP0565593B1, “REDUCING PESTICIDAL INTERACTIONS IN CROPS” (priority 1990, dated 1992)
